{"source": "ChEMBL document CHEMBL5647690", "about": "“Inhibition of demethylases by GSK-J1/J4” (Nature, 2014)", "key": {"[1]": {"target": "Histone lysine demethylase PHF8 (Homo sapiens, UniProt Q9UPP1)", "sequence (Q9UPP1 whole entry, the tested form may be a part)": "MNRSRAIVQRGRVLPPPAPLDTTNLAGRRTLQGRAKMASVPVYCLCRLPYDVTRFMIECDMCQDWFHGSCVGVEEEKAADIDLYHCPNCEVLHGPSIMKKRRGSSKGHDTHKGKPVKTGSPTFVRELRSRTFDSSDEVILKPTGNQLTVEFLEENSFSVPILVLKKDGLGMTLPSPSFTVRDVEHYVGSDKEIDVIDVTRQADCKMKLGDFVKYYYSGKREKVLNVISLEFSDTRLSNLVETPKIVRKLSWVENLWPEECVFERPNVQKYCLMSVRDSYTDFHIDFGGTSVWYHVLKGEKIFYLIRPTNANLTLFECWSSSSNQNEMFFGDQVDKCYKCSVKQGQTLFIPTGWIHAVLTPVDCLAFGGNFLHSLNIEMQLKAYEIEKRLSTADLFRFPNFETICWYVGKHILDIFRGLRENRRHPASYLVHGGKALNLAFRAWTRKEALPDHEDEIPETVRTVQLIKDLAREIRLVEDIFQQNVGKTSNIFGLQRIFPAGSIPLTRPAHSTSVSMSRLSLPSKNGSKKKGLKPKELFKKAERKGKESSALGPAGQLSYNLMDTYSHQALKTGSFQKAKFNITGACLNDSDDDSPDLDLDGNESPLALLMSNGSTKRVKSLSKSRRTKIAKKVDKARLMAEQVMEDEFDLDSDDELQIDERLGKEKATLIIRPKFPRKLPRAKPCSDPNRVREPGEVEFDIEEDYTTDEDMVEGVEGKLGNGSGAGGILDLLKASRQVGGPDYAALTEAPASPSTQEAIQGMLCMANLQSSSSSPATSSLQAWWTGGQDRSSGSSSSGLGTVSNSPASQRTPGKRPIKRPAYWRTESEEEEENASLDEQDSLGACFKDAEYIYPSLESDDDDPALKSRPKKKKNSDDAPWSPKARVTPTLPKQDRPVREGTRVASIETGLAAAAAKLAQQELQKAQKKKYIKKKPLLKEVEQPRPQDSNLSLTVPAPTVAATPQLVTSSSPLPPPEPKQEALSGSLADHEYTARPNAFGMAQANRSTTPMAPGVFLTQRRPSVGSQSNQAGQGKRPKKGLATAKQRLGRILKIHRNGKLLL", "test": "Inhibition of PHF8 (1 to 1024 residues)(unknown origin) by Alphalisa assay"}, "[2]": {"target": "T1, Lysine-specific demethylase 2B (Homo sapiens, UniProt Q8NHM5)", "T1 sequence (Q8NHM5 whole entry)": "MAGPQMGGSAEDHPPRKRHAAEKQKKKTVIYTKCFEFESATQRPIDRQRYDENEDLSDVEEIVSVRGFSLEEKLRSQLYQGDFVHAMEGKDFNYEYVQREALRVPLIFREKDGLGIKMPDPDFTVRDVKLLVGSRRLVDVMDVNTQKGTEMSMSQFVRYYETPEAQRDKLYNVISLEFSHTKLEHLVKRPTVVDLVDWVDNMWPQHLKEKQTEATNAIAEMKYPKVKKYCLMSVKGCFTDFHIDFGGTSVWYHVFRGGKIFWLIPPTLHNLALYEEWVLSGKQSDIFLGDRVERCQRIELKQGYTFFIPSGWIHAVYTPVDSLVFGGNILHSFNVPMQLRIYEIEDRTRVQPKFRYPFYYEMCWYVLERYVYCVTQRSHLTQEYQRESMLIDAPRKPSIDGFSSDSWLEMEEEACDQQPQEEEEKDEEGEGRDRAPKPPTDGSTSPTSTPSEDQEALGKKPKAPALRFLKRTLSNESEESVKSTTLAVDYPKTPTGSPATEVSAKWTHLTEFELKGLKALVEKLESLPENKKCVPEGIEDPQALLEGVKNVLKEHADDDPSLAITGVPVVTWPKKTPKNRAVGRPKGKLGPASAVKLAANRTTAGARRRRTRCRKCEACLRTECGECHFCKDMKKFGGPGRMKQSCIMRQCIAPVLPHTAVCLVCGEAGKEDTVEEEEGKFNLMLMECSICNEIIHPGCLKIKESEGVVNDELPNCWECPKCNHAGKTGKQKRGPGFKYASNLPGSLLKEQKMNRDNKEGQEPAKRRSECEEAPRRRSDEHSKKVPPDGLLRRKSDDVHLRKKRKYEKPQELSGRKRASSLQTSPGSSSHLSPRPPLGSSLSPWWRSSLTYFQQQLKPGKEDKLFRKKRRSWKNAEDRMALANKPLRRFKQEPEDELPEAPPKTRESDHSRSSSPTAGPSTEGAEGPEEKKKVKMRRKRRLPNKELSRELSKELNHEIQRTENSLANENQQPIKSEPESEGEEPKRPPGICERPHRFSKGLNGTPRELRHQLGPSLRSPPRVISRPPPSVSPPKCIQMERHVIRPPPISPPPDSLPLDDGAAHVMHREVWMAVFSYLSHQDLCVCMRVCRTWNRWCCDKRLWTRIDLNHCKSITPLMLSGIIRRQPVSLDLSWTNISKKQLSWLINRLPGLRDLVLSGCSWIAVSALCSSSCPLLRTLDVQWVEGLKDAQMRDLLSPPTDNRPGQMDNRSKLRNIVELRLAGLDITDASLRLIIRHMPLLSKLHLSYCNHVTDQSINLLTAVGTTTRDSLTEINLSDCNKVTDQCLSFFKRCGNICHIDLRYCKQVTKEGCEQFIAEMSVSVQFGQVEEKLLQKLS", "test": "Inhibition of KDM2B (1 to 650 residues)(unknown origin) by Alphalisa assay"}, "[3]": {"target": "Lysine-specific demethylase 5C (Homo sapiens, UniProt P41229)", "test": "Inhibition of KDM5C (2 to 1560 residues)(unknown origin) by Alphalisa assay"}, "[4]": {"target": "Lysine-specific demethylase 5A (Homo sapiens, UniProt P29375)", "sequence (P29375 whole entry, the tested form may be a part)": "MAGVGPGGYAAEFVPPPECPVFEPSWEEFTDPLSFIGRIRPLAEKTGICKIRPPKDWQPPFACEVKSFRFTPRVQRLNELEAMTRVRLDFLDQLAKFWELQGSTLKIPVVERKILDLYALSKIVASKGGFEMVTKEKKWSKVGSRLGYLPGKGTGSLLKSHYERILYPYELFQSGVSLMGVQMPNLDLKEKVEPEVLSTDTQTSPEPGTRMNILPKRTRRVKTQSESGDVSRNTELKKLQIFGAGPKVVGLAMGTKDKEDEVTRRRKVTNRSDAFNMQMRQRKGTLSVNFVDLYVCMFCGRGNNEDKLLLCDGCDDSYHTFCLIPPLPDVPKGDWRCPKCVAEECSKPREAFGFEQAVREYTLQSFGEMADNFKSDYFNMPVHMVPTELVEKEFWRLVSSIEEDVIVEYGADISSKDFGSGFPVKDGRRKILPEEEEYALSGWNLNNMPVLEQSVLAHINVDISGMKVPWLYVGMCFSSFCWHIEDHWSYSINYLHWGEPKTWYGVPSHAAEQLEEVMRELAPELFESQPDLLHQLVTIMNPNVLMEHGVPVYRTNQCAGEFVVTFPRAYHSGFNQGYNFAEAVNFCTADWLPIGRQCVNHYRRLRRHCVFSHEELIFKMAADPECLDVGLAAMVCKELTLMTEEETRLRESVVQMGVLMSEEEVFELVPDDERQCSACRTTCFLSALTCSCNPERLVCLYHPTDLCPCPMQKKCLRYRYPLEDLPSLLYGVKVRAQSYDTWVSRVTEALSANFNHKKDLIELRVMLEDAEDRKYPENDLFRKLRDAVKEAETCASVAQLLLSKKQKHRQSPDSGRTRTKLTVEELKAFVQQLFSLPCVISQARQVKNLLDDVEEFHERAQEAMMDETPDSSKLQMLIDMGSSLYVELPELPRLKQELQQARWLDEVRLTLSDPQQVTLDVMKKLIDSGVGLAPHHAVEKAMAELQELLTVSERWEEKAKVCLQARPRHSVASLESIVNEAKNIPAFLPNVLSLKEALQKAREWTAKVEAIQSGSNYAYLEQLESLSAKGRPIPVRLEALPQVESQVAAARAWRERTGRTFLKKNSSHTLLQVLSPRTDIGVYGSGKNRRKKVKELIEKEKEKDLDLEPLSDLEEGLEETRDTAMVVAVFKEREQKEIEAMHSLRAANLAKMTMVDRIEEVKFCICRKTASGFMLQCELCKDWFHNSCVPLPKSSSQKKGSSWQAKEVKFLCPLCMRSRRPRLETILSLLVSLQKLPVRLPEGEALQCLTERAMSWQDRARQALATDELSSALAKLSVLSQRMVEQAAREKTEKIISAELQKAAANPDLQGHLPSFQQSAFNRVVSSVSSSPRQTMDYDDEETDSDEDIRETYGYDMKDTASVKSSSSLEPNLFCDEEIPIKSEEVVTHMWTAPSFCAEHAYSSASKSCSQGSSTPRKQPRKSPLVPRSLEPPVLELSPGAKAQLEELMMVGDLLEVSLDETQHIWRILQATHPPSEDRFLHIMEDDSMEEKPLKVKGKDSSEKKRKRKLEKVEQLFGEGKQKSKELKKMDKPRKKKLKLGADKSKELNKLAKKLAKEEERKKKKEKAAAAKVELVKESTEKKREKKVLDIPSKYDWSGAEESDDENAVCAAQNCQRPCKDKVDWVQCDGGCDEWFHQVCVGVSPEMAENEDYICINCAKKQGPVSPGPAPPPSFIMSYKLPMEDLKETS", "test": "Inhibition of KDM5A (1 to 1090 residues)(unknown origin) by Alphalisa assay"}, "[5]": {"target": "Lysine-specific demethylase 5B (Homo sapiens, UniProt Q9UGL1)", "sequence (Q9UGL1 whole entry, the tested form may be a part)": "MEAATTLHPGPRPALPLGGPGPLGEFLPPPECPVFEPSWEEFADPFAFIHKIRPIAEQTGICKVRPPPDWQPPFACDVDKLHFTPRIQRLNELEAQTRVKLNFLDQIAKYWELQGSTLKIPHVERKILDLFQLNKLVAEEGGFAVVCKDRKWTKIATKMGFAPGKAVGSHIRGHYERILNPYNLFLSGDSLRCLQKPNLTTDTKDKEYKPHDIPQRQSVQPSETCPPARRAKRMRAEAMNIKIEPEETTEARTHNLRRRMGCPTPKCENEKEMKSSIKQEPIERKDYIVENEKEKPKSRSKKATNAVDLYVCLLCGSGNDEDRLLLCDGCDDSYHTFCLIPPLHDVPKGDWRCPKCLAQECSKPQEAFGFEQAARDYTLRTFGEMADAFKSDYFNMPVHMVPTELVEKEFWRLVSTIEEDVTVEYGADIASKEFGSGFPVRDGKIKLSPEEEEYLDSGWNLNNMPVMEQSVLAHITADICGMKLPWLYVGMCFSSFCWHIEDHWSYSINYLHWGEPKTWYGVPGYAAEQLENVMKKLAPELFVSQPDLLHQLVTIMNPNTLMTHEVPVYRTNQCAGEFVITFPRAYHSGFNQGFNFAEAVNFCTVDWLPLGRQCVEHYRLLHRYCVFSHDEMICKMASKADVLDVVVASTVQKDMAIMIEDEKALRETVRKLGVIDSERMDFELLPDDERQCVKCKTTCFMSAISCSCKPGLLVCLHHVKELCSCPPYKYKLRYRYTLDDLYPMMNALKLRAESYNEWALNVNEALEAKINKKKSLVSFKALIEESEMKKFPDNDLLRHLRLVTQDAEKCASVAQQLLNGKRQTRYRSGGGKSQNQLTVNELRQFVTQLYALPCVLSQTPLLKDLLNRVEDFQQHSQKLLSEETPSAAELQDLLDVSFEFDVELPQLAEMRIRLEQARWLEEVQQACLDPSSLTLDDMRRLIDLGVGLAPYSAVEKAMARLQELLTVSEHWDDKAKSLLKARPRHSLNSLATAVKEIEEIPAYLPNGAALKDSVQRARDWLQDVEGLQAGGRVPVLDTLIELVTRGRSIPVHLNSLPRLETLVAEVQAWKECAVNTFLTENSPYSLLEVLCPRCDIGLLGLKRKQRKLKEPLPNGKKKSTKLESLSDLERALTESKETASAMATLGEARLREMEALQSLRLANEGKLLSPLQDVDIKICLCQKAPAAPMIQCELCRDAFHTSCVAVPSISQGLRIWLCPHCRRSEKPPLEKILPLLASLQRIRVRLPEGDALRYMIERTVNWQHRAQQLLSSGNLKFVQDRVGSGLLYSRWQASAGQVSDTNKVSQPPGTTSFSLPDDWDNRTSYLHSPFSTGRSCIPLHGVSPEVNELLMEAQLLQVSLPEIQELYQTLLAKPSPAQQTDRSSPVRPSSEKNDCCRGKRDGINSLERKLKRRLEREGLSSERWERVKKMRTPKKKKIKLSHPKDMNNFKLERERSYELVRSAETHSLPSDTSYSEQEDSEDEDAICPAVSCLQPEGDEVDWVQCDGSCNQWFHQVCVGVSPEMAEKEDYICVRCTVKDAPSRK", "test": "Inhibition of KDM5B (1 to 809 residues)(unknown origin) by Alphalisa assay"}}, "data": [{"smiles": "O=C(O)CCNc1cc(N2CCc3ccccc3CC2)nc(-c2cccnc2)n1", "values": [{"measurement": "IC50", "setting": "[1]", "result": 17, "unit": "µM"}, {"measurement": "IC50", "setting": "[2]", "result": 8.3, "unit": "µM"}, {"measurement": "IC50", "setting": "[3]", "result": "> 75", "unit": "µM"}, {"measurement": "IC50", "setting": "[4]", "result": "> 20", "unit": "µM"}, {"measurement": "IC50", "setting": "[5]", "result": 33, "unit": "µM"}]}, {"smiles": "CCOC(=O)CCNc1cc(N2CCc3ccccc3CC2)nc(-c2cccnc2)n1", "values": [{"measurement": "IC50", "setting": "[1]", "result": "> 25", "unit": "µM"}, {"measurement": "IC50", "setting": "[2]", "result": 24, "unit": "µM"}, {"measurement": "IC50", "setting": "[4]", "result": "> 50", "unit": "µM"}, {"measurement": "IC50", "setting": "[5]", "result": "> 25", "unit": "µM"}]}]}
